Laboratory results from ChEMBL document CHEMBL5523701, “Structure-based discovery of small molecule inhibitors of FKBP51-Hsp90 protein-protein interaction” (Eur J Med Chem, 2024).
pIC50: −log10 of the molar value.

Columns and labels:
[1] = target: T1, Peptidyl-prolyl cis-trans isomerase FKBP4 (Homo sapiens, UniProt Q02790); assay: Inhibition of GST-tagged human FKBP52 expressed in Escherichia coli BL21 (DE3) using NH2-EDASRMEEVD-COOH peptide as substrate preincubated for 15 mins followed by substrate addition measured after 15 mins by Alpha Screen assay
T1 sequence (Q02790 whole entry): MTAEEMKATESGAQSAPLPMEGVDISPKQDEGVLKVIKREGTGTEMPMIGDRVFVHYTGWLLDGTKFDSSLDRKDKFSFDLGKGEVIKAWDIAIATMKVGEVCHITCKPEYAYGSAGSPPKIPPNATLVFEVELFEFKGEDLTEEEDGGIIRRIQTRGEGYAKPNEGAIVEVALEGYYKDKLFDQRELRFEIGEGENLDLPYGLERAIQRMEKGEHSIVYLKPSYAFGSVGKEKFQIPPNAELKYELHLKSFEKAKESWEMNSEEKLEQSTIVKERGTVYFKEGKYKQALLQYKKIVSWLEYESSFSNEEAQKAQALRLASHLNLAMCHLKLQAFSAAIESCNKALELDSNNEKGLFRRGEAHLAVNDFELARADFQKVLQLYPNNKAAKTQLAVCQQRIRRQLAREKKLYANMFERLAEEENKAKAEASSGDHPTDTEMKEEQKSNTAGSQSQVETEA

[2] = target: T2, Peptidyl-prolyl cis-trans isomerase FKBP5 (Homo sapiens, UniProt Q13451); assay: Inhibition of GST-tagged human FKBP51 expressed in Escherichia coli BL21 (DE3) using NH2-EDASRMEEVD-COOH peptide as substrate preincubated for 15 mins followed by substrate addition measured after 15 mins by Alpha Screen assay
T2 sequence (Q13451 whole entry): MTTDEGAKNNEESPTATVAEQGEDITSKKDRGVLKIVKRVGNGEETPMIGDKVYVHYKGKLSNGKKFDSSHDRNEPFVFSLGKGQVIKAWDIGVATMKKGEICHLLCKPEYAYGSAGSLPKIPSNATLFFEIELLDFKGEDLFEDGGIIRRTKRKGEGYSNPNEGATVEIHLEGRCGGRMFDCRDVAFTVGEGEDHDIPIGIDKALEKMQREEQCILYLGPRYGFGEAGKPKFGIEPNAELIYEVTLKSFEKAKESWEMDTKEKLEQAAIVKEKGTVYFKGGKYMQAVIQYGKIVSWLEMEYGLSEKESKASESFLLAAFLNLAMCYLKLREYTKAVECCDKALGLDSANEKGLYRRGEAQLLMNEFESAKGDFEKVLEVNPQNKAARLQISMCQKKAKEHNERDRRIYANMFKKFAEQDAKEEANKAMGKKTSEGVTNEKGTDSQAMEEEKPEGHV

[3] = target: Small glutamine-rich tetratricopeptide repeat-containing protein alpha (Homo sapiens, UniProt O43765); assay: Inhibition of GST-tagged human SGTA expressed in Escherichia coli BL21 (DE3) using NH2-EDASRMEEVD-COOH peptide as substrate preincubated for 15 mins followed by substrate addition measured after 15 mins by Alpha Screen assay
Chain of Small glutamine-rich tetratricopeptide repeat-containing protein alpha (O43765 whole entry): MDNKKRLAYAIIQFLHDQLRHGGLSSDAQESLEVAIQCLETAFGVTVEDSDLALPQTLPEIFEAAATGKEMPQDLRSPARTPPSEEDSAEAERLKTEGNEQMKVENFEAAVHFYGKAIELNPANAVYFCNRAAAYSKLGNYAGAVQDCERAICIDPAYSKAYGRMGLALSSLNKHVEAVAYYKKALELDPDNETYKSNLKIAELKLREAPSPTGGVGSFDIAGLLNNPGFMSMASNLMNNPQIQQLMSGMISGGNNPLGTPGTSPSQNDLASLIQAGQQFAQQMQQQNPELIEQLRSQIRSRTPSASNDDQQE

[4] = buffer
Description: Solubility of compound in aqueous solution

[5] = target: Stress-induced-phosphoprotein 1 (Homo sapiens, UniProt P31948); assay: Inhibition of GST-tagged human HOP expressed in Escherichia coli BL21 (DE3) using NH2-EDASRMEEVD-COOH peptide as substrate preincubated for 15 mins followed by substrate addition measured after 15 mins by Alpha Screen assay
Chain of Stress-induced-phosphoprotein 1 (P31948 whole entry): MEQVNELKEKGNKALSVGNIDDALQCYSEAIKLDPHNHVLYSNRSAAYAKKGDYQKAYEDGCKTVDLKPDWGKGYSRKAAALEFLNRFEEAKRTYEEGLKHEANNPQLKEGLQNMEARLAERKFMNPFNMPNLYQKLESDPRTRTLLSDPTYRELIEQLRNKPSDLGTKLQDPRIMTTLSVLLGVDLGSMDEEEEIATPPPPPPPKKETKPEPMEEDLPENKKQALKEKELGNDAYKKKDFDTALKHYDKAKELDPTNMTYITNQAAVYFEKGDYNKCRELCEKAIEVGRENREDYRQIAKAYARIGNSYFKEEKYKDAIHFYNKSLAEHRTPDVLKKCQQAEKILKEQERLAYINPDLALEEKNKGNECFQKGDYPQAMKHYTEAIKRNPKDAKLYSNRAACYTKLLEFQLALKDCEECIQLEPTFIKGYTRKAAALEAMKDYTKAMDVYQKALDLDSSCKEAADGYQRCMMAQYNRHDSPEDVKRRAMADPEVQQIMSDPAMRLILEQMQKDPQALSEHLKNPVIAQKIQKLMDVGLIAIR

[6] = target: T3, Serine/threonine-protein phosphatase 5 (Homo sapiens, UniProt P53041); assay: Inhibition of GST-tagged human PP5 expressed in Escherichia coli BL21 (DE3) using NH2-EDASRMEEVD-COOH peptide as substrate preincubated for 15 mins followed by substrate addition measured after 15 mins by Alpha Screen assay
T3 sequence (P53041 whole entry): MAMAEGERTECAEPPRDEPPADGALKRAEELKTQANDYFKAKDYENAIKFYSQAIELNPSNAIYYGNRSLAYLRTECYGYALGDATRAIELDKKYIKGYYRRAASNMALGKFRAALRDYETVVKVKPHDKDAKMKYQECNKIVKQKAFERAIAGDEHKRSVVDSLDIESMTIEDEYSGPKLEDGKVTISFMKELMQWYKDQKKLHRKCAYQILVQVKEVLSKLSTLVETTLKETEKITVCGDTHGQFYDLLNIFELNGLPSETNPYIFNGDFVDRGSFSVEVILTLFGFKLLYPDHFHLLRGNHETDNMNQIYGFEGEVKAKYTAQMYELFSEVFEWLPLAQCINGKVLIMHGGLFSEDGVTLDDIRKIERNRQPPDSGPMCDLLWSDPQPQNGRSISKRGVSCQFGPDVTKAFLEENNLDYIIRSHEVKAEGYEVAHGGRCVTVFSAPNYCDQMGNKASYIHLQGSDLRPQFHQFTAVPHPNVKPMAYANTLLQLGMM

[7] = Inhibition of GST-tagged FKBP51 Y355F mutant (unknown origin) using NH2-EDASRMEEVD-COOH peptide as substrate preincubated for 15 mins followed by substrate addition measured after 15 mins by Alpha Screen assay; set-up: species or system Homo sapiens
[8] = Inhibition of GST-tagged FKBP51 N381Y mutant (unknown origin) using NH2-EDASRMEEVD-COOH peptide as substrate preincubated for 15 mins followed by substrate addition measured after 15 mins by Alpha Screen assay; set-up: species or system Homo sapiens
[9] = target: T4, AH receptor-interacting protein (Homo sapiens, UniProt O00170); assay: Inhibition of GST-tagged human AIP expressed in Escherichia coli BL21 (DE3) using NH2-EDASRMEEVD-COOH peptide as substrate preincubated for 15 mins followed by substrate addition measured after 15 mins by Alpha Screen assay
T4 sequence (O00170 whole entry): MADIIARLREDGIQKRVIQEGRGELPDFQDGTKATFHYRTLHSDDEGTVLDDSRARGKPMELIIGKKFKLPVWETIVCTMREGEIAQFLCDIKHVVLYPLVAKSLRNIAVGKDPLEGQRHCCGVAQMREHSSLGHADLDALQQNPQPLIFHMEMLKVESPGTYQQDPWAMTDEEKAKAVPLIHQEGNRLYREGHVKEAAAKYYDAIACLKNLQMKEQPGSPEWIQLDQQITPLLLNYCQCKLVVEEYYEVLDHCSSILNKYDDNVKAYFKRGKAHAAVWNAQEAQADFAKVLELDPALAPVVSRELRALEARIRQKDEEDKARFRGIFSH

[10] = target: T5, E3 ubiquitin-protein ligase CHIP (Homo sapiens, UniProt Q9UNE7); assay: Inhibition of GST-tagged human CHIP expressed in Escherichia coli BL21 (DE3) using NH2-EDASRMEEVD-COOH peptide as substrate preincubated for 15 mins followed by substrate addition measured after 15 mins by Alpha Screen assay
T5 sequence (Q9UNE7 whole entry): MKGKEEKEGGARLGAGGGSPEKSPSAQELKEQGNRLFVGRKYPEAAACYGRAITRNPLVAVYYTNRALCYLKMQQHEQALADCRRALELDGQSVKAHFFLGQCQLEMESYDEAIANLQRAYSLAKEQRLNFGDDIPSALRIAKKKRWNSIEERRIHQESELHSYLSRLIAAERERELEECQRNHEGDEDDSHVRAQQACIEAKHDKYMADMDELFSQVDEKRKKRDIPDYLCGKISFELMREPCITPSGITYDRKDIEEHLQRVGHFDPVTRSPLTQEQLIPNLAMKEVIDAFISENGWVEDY

[11] = target: T6, Mitochondrial import receptor subunit TOM70 (Homo sapiens, UniProt O94826); assay: Inhibition of GST-tagged human TOM70 expressed in Escherichia coli BL21 (DE3) using NH2-EDASRMEEVD-COOH peptide as substrate preincubated for 15 mins followed by substrate addition measured after 15 mins by Alpha Screen assay
T6 sequence (O94826 whole entry): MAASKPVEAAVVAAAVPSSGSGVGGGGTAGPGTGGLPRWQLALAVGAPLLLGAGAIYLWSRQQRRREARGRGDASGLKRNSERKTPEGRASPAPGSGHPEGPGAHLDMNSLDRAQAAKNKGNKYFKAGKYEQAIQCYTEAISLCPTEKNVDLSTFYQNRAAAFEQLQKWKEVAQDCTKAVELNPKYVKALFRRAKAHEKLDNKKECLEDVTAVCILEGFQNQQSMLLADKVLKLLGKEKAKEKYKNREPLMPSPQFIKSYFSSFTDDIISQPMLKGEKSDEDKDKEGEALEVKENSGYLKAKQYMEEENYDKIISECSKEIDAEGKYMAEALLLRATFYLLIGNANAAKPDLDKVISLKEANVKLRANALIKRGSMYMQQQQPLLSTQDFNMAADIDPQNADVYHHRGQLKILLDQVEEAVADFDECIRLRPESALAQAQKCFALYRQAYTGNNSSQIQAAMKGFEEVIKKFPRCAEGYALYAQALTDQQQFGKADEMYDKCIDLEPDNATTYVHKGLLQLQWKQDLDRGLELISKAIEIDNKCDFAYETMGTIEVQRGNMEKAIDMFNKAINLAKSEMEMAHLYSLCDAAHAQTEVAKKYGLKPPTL

[12] = target: T7, DnaJ homolog subfamily C member 7 (Homo sapiens, UniProt Q99615); assay: Inhibition of GST-tagged human DNAJC7 expressed in Escherichia coli BL21 (DE3) using NH2-EDASRMEEVD-COOH peptide as substrate preincubated for 15 mins followed by substrate addition measured after 15 mins by Alpha Screen assay
T7 sequence (Q99615 whole entry): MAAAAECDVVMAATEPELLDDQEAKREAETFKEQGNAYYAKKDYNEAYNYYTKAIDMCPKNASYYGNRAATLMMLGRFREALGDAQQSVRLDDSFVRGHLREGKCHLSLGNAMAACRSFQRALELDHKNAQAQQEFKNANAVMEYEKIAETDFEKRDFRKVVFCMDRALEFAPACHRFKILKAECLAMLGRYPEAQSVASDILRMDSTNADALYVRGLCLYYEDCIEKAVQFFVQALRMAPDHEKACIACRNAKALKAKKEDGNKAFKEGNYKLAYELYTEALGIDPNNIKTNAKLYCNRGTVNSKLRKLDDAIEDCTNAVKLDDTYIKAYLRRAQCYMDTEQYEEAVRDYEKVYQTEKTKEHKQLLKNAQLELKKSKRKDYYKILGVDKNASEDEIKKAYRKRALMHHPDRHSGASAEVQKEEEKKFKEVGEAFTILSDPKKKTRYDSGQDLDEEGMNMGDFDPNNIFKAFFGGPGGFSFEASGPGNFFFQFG

For `CCC(=O)Nc1ccc(NC(=O)CSc2nc3cc4c(cc3cc2C)CCC4)cc1`, the pIC50 [1] was 5.52.
With `CCOC(=O)c1c(NC(=O)CSc2n[nH]c(CNc3ccccc3)n2)sc(C)c1C` the pIC50 [1] was 5.10.
`CCc1nnc(NC(=O)CSc2nc(-c3ccc(C)cc3)cc(-c3ccc(OC)cc3)c2C#N)o1` gave a pIC50 [1] of 5.52 and a pIC50 [2] of 5.70.
`CCOC(=O)c1c(NC(=O)CSc2nnc(-c3cccc(O)c3)o2)sc(C)c1C` showed a pIC50 [1] of 5.52.
Work on `CCOC(=O)CC(=O)CSc1nc(C)c2cc(OCC)ccc2n1` yielded a pIC50 [1] of 5.05.
For `CCC1CCc2c(sc(NC(=O)CCCC(=O)Nc3sc4c(c3C(N)=O)CCC(CC)C4)c2C(N)=O)C1` (stereo not drawn), the pIC50 [3] was 7.00, the solubility [4] was “Insoluble” and the pIC50 [5] was 5.00. For the same compound, the pIC50 [6] was 7.52, the pIC50 [7] was 4.40 and the pIC50 [8] was 7.30. The pIC50 [9] was 5.00, the pIC50 [10] was 6.00 and the solubility was “Insoluble”. The pIC50 [11] was 5.82 and the pIC50 [12] was 6.00.
In the case of `CCS(=O)(=O)Nc1ccc(-c2nnc(SCC(=O)c3c(C)c(C)cc(C)c3C)o2)cc1`, the pIC50 [1] was 5.22.
Compound `Cc1ccc(NC(=O)c2cc(NC(=O)c3ccccc3)cc(NC(=O)c3ccccc3)c2)cc1C` has a pIC50 [1] of under 4.00.
Work on `O=C(CSc1nnc(-c2ccc(S(=O)(=O)N3CCCC3)cc2)o1)Nc1ccc(F)cc1` yielded a pIC50 [1] of 5.22.
Work on `CCOc1ccc2cc(C#N)c(SCC(=O)NCCc3ccccc3)nc2c1` yielded a pIC50 [1] of 5.30.
For `CCOc1ccc2cc(C#N)c(SCC(=O)Nc3cccc(F)c3)nc2c1`, the pIC50 [1] was 5.22.
For `CCC(=O)Nc1ccc(NC(=O)CSc2nc3cc4c(cc3cc2C)CCC4)cc1C`, the pIC50 [1] was 5.30.
